# Source: the NIST ThermoML archive (doi:10.1021/je030127e)
# ± gives the expanded uncertainty stated by the source.
# Test: xn = mol fraction of the nth substance listed
# Conditions: 101.3 kPa, Liquid; for viscosity: Capillary tube (Ostwald / Ubbelohde) method
structure (smiles),measurement,setting,value
CCCCN [1-butanamine] + COCCO,viscosity,"293.15 K, x2 = 0",0.525 ± 0.005 mPa·s
same,viscosity,"293.15 K, x2 = 0.0501",0.566 ± 0.005 mPa·s
same,viscosity,"293.15 K, x2 = 0.0999",0.613 ± 0.006 mPa·s
same,viscosity,"293.15 K, x2 = 0.1508",0.669 ± 0.006 mPa·s
same,viscosity,"293.15 K, x2 = 0.2001",0.731 ± 0.006 mPa·s
same,viscosity,"293.15 K, x2 = 0.2509",0.801 ± 0.007 mPa·s
same,viscosity,"293.15 K, x2 = 0.3",0.879 ± 0.007 mPa·s
same,viscosity,"293.15 K, x2 = 0.3498",0.964 ± 0.008 mPa·s
same,viscosity,"293.15 K, x2 = 0.4001",1.053 ± 0.008 mPa·s
same,viscosity,"293.15 K, x2 = 0.4511",1.146 ± 0.009 mPa·s
same,viscosity,"293.15 K, x2 = 0.5001",1.238 ± 0.01 mPa·s
same,viscosity,"293.15 K, x2 = 0.5496",1.327 ± 0.01 mPa·s
same,viscosity,"293.15 K, x2 = 0.5997",1.412 ± 0.011 mPa·s
same,viscosity,"293.15 K, x2 = 0.6503",1.488 ± 0.012 mPa·s
same,viscosity,"293.15 K, x2 = 0.7",1.552 ± 0.012 mPa·s
same,viscosity,"293.15 K, x2 = 0.7492",1.604 ± 0.012 mPa·s
same,viscosity,"293.15 K, x2 = 0.7999",1.643 ± 0.013 mPa·s
same,viscosity,"293.15 K, x2 = 0.8491",1.671 ± 0.013 mPa·s
same,viscosity,"293.15 K, x2 = 0.8993",1.686 ± 0.013 mPa·s
same,viscosity,"293.15 K, x2 = 0.95",1.696 ± 0.013 mPa·s
same,viscosity,"298.15 K, x2 = 0",0.496 ± 0.005 mPa·s
same,viscosity,"298.15 K, x2 = 0.0501",0.536 ± 0.005 mPa·s
same,viscosity,"298.15 K, x2 = 0.0999",0.578 ± 0.006 mPa·s
same,viscosity,"298.15 K, x2 = 0.1508",0.625 ± 0.006 mPa·s
same,viscosity,"298.15 K, x2 = 0.2001",0.68 ± 0.006 mPa·s
same,viscosity,"298.15 K, x2 = 0.2509",0.743 ± 0.006 mPa·s
same,viscosity,"298.15 K, x2 = 0.3",0.81 ± 0.007 mPa·s
same,viscosity,"298.15 K, x2 = 0.3498",0.886 ± 0.007 mPa·s
same,viscosity,"298.15 K, x2 = 0.4001",0.966 ± 0.008 mPa·s
same,viscosity,"298.15 K, x2 = 0.4511",1.049 ± 0.008 mPa·s
same,viscosity,"298.15 K, x2 = 0.5001",1.133 ± 0.009 mPa·s
same,viscosity,"298.15 K, x2 = 0.5496",1.214 ± 0.01 mPa·s
same,viscosity,"298.15 K, x2 = 0.5997",1.29 ± 0.01 mPa·s
same,viscosity,"298.15 K, x2 = 0.6503",1.358 ± 0.011 mPa·s
same,viscosity,"298.15 K, x2 = 0.7",1.415 ± 0.011 mPa·s
same,viscosity,"298.15 K, x2 = 0.7492",1.461 ± 0.011 mPa·s
same,viscosity,"298.15 K, x2 = 0.7999",1.493 ± 0.012 mPa·s
same,viscosity,"298.15 K, x2 = 0.8491",1.516 ± 0.012 mPa·s
same,viscosity,"298.15 K, x2 = 0.8993",1.525 ± 0.012 mPa·s
same,viscosity,"298.15 K, x2 = 0.95",1.533 ± 0.012 mPa·s
same,speed of sound,"298.15 K, x2 = 0",1251.6 ± 1.1 m/s
same,speed of sound,"298.15 K, x2 = 0.0501",1257 ± 1.1 m/s
same,speed of sound,"298.15 K, x2 = 0.0999",1262.3 ± 1.1 m/s
same,speed of sound,"298.15 K, x2 = 0.1508",1267.7 ± 1.1 m/s
same,speed of sound,"298.15 K, x2 = 0.2001",1273.1 ± 1.1 m/s
same,speed of sound,"298.15 K, x2 = 0.2509",1278.4 ± 1.1 m/s
same,speed of sound,"298.15 K, x2 = 0.3",1283.6 ± 1.1 m/s
same,speed of sound,"298.15 K, x2 = 0.3498",1288.8 ± 1.1 m/s
same,speed of sound,"298.15 K, x2 = 0.4001",1294 ± 1.1 m/s
same,speed of sound,"298.15 K, x2 = 0.4511",1299.1 ± 1.1 m/s
same,speed of sound,"298.15 K, x2 = 0.5001",1304 ± 1.1 m/s
same,speed of sound,"298.15 K, x2 = 0.5496",1308.8 ± 1.1 m/s
same,speed of sound,"298.15 K, x2 = 0.5997",1313.5 ± 1.1 m/s
same,speed of sound,"298.15 K, x2 = 0.6503",1318.1 ± 1.1 m/s
same,speed of sound,"298.15 K, x2 = 0.7",1322.4 ± 1.1 m/s
same,speed of sound,"298.15 K, x2 = 0.7492",1326.6 ± 1.1 m/s
same,speed of sound,"298.15 K, x2 = 0.7999",1330.7 ± 1.1 m/s
same,speed of sound,"298.15 K, x2 = 0.8491",1334.5 ± 1.1 m/s
same,speed of sound,"298.15 K, x2 = 0.8993",1338 ± 1.1 m/s
same,speed of sound,"298.15 K, x2 = 0.95",1341.4 ± 1.1 m/s
same,viscosity,"303.15 K, x2 = 0",0.467 ± 0.005 mPa·s
same,viscosity,"303.15 K, x2 = 0.0501",0.504 ± 0.005 mPa·s
same,viscosity,"303.15 K, x2 = 0.0999",0.544 ± 0.005 mPa·s
same,viscosity,"303.15 K, x2 = 0.1508",0.588 ± 0.006 mPa·s
same,viscosity,"303.15 K, x2 = 0.2001",0.636 ± 0.006 mPa·s
same,viscosity,"303.15 K, x2 = 0.2509",0.691 ± 0.006 mPa·s
same,viscosity,"303.15 K, x2 = 0.3",0.75 ± 0.007 mPa·s
same,viscosity,"303.15 K, x2 = 0.3498",0.815 ± 0.007 mPa·s
same,viscosity,"303.15 K, x2 = 0.4001",0.885 ± 0.007 mPa·s
same,viscosity,"303.15 K, x2 = 0.4511",0.957 ± 0.008 mPa·s
same,viscosity,"303.15 K, x2 = 0.5001",1.031 ± 0.008 mPa·s
same,viscosity,"303.15 K, x2 = 0.5496",1.103 ± 0.009 mPa·s
same,viscosity,"303.15 K, x2 = 0.5997",1.17 ± 0.009 mPa·s
same,viscosity,"303.15 K, x2 = 0.6503",1.232 ± 0.01 mPa·s
same,viscosity,"303.15 K, x2 = 0.7",1.286 ± 0.01 mPa·s
same,viscosity,"303.15 K, x2 = 0.7492",1.327 ± 0.01 mPa·s
same,viscosity,"303.15 K, x2 = 0.7999",1.359 ± 0.011 mPa·s
same,viscosity,"303.15 K, x2 = 0.8491",1.379 ± 0.011 mPa·s
same,viscosity,"303.15 K, x2 = 0.8993",1.389 ± 0.011 mPa·s
same,viscosity,"303.15 K, x2 = 0.95",1.395 ± 0.011 mPa·s
